From patent US20110003711A1 (CHROMOCELL CORPORATION, priority 2008, published 2011) come the findings set out here.

Counter-ions that a name gives are not always drawn. Like-named read-outs stand apart in the source and are kept apart here.

As usually defined, the EC50 is the concentration giving half of the maximal effect.

The target of experiment [1] is T1, GABAA receptor α3β3γ2s (α3) (Homo sapiens, UniProt P18507+P28472+P34903).
T1 construct: Human GABAA receptor alpha 3 subunit amino acid; Human GABAA receptor beta 3 variant 1 subunit amino acid; Human GABAA receptor gamma 2 variant 1 (short) subunit amino acid; expressed in transfected cells
T1 sequence (P34903 29-492): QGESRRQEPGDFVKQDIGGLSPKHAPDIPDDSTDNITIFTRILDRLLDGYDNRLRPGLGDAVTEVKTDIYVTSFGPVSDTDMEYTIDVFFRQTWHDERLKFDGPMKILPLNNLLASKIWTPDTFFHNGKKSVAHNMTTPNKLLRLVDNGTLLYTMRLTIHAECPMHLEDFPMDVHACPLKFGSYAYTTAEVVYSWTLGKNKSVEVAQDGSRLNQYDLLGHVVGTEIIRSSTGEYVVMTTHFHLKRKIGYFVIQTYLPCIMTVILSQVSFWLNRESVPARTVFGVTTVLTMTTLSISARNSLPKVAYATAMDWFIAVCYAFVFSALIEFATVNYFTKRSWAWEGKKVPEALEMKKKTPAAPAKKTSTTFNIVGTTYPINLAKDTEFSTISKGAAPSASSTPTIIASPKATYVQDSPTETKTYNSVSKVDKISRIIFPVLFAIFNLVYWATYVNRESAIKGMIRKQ
T1 sequence (P28472 26-473): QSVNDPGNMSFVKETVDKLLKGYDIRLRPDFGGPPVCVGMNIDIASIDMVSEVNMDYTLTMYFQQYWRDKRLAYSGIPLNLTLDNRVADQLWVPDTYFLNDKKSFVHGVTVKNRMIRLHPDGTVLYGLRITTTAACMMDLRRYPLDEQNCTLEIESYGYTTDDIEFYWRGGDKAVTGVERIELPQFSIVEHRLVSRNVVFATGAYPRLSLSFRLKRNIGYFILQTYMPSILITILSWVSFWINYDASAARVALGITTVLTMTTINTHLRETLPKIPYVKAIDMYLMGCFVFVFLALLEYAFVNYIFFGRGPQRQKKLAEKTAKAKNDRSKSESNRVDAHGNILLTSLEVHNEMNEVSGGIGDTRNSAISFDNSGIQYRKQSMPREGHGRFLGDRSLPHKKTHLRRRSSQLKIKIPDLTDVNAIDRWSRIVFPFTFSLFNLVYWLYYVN
T1 sequence (P18507 40-467 isoform P18507-1 limits assumed): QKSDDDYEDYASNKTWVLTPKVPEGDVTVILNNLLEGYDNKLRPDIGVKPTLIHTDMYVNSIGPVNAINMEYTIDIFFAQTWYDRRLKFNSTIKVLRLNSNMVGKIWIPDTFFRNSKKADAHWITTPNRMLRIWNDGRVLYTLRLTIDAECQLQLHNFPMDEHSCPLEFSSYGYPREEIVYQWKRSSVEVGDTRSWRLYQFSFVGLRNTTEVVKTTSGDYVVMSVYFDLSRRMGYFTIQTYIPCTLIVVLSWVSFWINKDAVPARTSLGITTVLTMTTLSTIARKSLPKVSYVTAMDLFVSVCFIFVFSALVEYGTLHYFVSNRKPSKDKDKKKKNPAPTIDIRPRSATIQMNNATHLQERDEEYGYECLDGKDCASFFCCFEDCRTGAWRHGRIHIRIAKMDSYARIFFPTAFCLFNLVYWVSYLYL
Kind of experiment: Membrane potential assay, CHO cell line expressing GABAA α3β3γ2s. In kind it is cell-based. Here is the method: (§1) As will be appreciated by those of skill in the art, any reagent that is suitable for use with a chosen host cell may be used to introduce a nucleic acid, e.g. plasmid, oligonucleotide, labeled oligonucleotide, into a host cell with proper optimization. Examples of reagents that may be used to introduce nucleic acids into host cells include but are not limited to Lipofectamine, Lipofectamine 2000, Oligofectamine, TFX reagents, Fugene 6, DOTAP/DOPE, Metafectine, or Fecturin.
(§2) Cells were plated 24 hours prior to assay at 10-25,000 cells per well in 384 well plates in growth media (Ham's F-12 media plus FBS and glutamine). […] Incubation was for 1 hour, followed by plate loading onto the high throughput fluorescent plate reader (Hamamastu FDSS). […] The plates were read for 90 seconds.
(§3) Interaction of cell lines with test compounds was evaluated by measuring the membrane potential of GABAA, in response to test compounds using the following protocol.

For experiment [2], the target named is T2, GABAA receptor α2β3γ2s (α2) (Homo sapiens, UniProt P18507+P28472+P47869, A343T).
T2 construct: Human GABAA receptor alpha 2 subunit amino acid; Human GABAA receptor beta 3 variant 1 subunit amino acid; Human GABAA receptor gamma 2 variant 1 (short) subunit amino acid; expressed in transfected cells
T2 sequence (P47869 29-451 A343T): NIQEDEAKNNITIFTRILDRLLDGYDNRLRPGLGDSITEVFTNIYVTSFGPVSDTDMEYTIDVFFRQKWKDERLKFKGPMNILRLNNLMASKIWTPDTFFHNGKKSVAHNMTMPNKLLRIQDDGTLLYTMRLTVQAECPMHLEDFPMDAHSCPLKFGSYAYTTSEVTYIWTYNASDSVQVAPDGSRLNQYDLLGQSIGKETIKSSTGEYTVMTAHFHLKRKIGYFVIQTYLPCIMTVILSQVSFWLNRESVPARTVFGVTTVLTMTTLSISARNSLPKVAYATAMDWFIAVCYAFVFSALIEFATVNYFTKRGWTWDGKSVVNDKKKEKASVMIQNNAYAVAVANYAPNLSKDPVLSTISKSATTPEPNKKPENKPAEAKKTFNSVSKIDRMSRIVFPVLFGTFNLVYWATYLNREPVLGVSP
T2 sequence (P28472 26-473, stated change not applied): as the sequence (P28472 26-473) above
T2 sequence (P18507 40-467 isoform P18507-1, stated change not applied): as the sequence (P18507 40-467 isoform P18507-1 limits assumed) above
The experiment is described as follows: Membrane potential assay, CHO cell line expressing GABAA α2β3γ2s. To be noted: membrane potential assay, CHO α2β3γ2s cell line. It is filed as cell-based. On the procedure: as §1, §2, §3

The target of experiment [3] is T3, GABAA receptor α1β3γ2s (α1) (Homo sapiens, UniProt P14867+P18507+P28472).
T3 construct: Human GABAA receptor alpha 1 subunit amino acid; Human GABAA receptor beta 3 variant 1 subunit amino acid; Human GABAA receptor gamma 2 variant 1 (short) subunit amino acid; expressed in transfected cells
T3 sequence (P14867 28-456): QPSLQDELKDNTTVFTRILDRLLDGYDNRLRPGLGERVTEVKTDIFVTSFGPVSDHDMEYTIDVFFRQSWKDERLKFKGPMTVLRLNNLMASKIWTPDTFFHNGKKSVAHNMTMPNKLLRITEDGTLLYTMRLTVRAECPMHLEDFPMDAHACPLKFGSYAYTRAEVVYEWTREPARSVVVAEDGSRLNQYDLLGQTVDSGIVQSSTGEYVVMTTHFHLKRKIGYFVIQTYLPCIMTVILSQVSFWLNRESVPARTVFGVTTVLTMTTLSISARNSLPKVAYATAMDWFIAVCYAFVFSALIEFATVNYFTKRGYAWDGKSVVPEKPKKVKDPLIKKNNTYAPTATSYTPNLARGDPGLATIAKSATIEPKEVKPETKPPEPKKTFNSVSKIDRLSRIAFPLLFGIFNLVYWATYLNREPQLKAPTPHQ
T3 sequence (P28472 26-473): as the sequence (P28472 26-473) above
T3 sequence (P18507 40-467 isoform P18507-1 limits assumed): as the sequence (P18507 40-467 isoform P18507-1 limits assumed) above
Kind of experiment: Membrane potential assay, CHO cell line expressing GABAA α1β3γ2s. In kind it is cell-based. On the procedure:
as §1, §2, §3

In experiment [4] the target is T4, GABAA receptor α5β3γ2s (α5) (Homo sapiens, UniProt P18507+P28472+P31644).
T4 construct: Human GABAA receptor alpha 5 subunit amino acid; Human GABAA receptor beta 3 variant 1 subunit amino acid; Human GABAA receptor gamma 2 variant 1 (short) subunit amino acid; expressed in transfected cells
T4 sequence (P31644 32-462): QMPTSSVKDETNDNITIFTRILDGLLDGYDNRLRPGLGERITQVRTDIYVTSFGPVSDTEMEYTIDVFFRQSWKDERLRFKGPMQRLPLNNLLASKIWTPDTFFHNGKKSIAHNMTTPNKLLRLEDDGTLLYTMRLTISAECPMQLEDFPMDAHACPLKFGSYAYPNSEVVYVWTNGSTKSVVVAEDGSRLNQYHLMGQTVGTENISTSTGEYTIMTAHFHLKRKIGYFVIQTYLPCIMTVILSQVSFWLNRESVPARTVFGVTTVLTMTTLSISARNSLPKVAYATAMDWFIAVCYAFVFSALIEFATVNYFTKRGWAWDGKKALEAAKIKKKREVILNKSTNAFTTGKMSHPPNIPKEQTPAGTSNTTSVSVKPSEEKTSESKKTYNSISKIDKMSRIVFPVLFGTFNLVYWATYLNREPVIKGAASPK
T4 sequence (P28472 26-473): as the sequence (P28472 26-473) above
T4 sequence (P18507 40-467 isoform P18507-1 limits assumed): as the sequence (P18507 40-467 isoform P18507-1 limits assumed) above
The experiment is described as follows: Membrane potential assay, CHO cell line expressing GABAA α5β3γ2s. It is filed as cell-based. Here is the method: as §1, §2, §3

Experiment [5] addresses T5, GABAA receptor α2β3γ2s (α2) (Homo sapiens, UniProt P18507+P28472+P47869).
T5 construct: Human GABAA receptor alpha 2 subunit amino acid; Human GABAA receptor beta 3 variant 1 subunit amino acid; Human GABAA receptor gamma 2 variant 1 (short) subunit amino acid; expressed in transfected cells
Kind of experiment: Membrane potential assay, CHO cell line expressing GABAA α2β3γ2s. In kind it is cell-based. Here is the method: as §1, §2, §3

Experiment [6] deals with GABAA-meYFP-CHO cells (α1β3γ2s, α2β3γ2s, α3β3γ2s, α5β3γ2s). Kind of experiment: In-cell readout assay using halide-sensitive meYFP. In kind it is cell-based, human. To be noted: increasing concentrations of GABA ligand. Here is the method: The response of GABAA (subunit combinations of α1β3γ2s (A1), α2β3γ2s (A2), α3β3γ2s (A3) and α5β3γ2s (A5)) expressing CHO cells of the invention to test compounds was evaluated using the following protocol for an in-cell readout assay.
Cells were plated 24 hours prior to assay at 10-25,000 cells per well in 384 well plates in growth media (Ham's F-12 media plus FBS and glutamine). […] The assay plates were then loaded on the FDSS (Hamamatsu Corporation). […] The plates were read for 90 seconds.

The mark [7] stands for this setting: membrane potential assay, CHO α3β3γ2s cell line, read-out: EC50 Values α3.
The mark [8] stands for this setting: membrane potential assay, CHO α1β3γ2s cell line, read-out: EC50 Values α1.
The mark [9] stands for this setting: membrane potential assay, CHO α5β3γ2s cell line, read-out: EC50 Values α5.

T5 sequence (P47869 29-451 A343T): as the sequence (P47869 29-451 A343T) above
T5 sequence (P28472 26-473, change not shown): as the sequence (P28472 26-473) above
T5 sequence (P18507 40-467 isoform P18507-1, change not shown): as the sequence (P18507 40-467 isoform P18507-1 limits assumed) above

As to `C[C@]12CC[C@@H](O)C[C@@H]1CC[C@@H]1[C@@H]2CC[C@]2(C)[C@@H](C(=O)CO)CC[C@@H]12` [3-alpha, 21-dihydroxy-5-alpha-pregnan-20-one], the EC50 came to 80.2 nM in experiment [1] (setting [7]), 123 nM in experiment [2], 382 nM in experiment [3] (setting [8]) and 17.3 nM in experiment [4] (setting [9]).
For the molecule `CC(=O)[C@H]1CC[C@H]2[C@@H]3CC[C@H]4C[C@H](O)CC[C@]4(C)[C@H]3CC[C@]12C` [5-alpha-Pregnan-3alpha-ol-20-one], the EC50 in experiment [1] (setting [7]) was 80 nM; in experiment [5] it was 140 nM; in experiment [3] (setting [8]) it was 692 nM; in experiment [4], 33.6 nM.
For `C[C@]12CC[C@@H](O)C[C@@H]1CC[C@@H]1[C@@H]2CC[C@]2(C)C(=O)CC[C@@H]12` [Androsterone], the EC50 in experiment [1] was 1120 nM; in experiment [5] it was 1520 nM; in experiment [3] it was 1480 nM; in experiment [4], 337 nM.
The corresponding values for `CN1C(=O)CCS(=O)(=O)C1c1ccc(Cl)cc1` (stereo not shown) [Chlormezanone] are 7 nM, 5.42 nM, 1.74 nM and 14.1 nM.
With `OCCN(CCO)c1nc(N2CCCCC2)c2nc(N(CCO)CCO)nc(N3CCCCC3)c2n1` [Dipyridamole], the EC50 is 3690 nM in experiment [1] (setting [7]), 3680 nM in experiment [2] and 1370 nM in experiment [4] (setting [9]).
Take `CCOC(=O)c1cnc2c(cnn2CC)c1NN=C(C)C` [Etazolate]: the EC50 in experiment [1] (setting [7]) is 569 nM; in experiment [2], 790 nM; in experiment [3] (setting [8]), 2540 nM; in experiment [4] (setting [9]) it was 281 nM.
Turning to `NCCCC(=O)O` [GABA, Gamma-aminobutyric acid], the “Quench of meYFP signal” value in experiment [6] is listed as “increasing quench of meYFP signal”.
In the case of `COc1cc(/C=C(\C#N)C(=O)c2ccc(O)c(O)c2)cc(I)c1O` [I-OMe Tyrphostin 538], the figures for the EC50 in experiment [1] (setting [7]), in experiment [2] and in experiment [3] (setting [8]) were 2200 nM, 1500 nM and 3500 nM, respectively. Also, the “EC50 Values α5 (result in words)” value in experiment [4] (membrane potential assay, CHO α5β3γ2s cell line) is listed as “α5 Not active”.
Turning to `O=C(O)C1=CCNCC1` [Isoguvacine hydrochloride], the EC50 in experiment [1] (setting [7]) was 6780 nM; in experiment [2], 3420 nM; in experiment [3] (setting [8]) it was 3570 nM; in experiment [4] (setting [9]), 1130 nM.
Turning to `NCc1cc(=O)[nH]o1` [Muscimol], the EC50 was 367 nM in experiment [1], 675 nM in experiment [5], 4000 nM in experiment [3] and 80 nM in experiment [4].
On to `O=C(Nc1ccc([N+](=O)[O-])cc1Cl)c1cc(Cl)ccc1O` [Niclosamide], for which the EC50 in experiment [1] (setting [7]) turned out to be 550 nM; in experiment [4] (setting [9]), 690 nM.
For `O=S(=O)(O)C1CCNCC1` [Piperidine-4-sulphonic acid], the EC50 in experiment [1] (setting [7]) is 8330 nM; in experiment [2], 20000 nM; in experiment [3] (setting [8]), 13000 nM; in experiment [4] (setting [9]), 14200 nM.
As for `CC(C)c1cccc(C(C)C)c1O` [Propofol], the EC50 in experiment [1] was 12900 nM; in experiment [5] it was 42800 nM; in experiment [3], 33400 nM; in experiment [4] it was 2000 nM.
Take `CCCCNc1c(C(=O)OCC)c(C)nc2c1cnn2CC` [Tracazolate]: the concentration for a half-maximal effect (EC50) amounted to 4300 nM in experiment [1] (setting [7]), 8900 nM in experiment [2], 10600 nM in experiment [3] (setting [8]) and 762 nM in experiment [4] (setting [9]).
Regarding `CC(C)(C)c1cc(C=C(C#N)C#N)cc(C(C)(C)C)c1O` [Tyrphostin A9], the EC50 was 5000 nM in experiment [1] (setting [7]), 880 nM in experiment [2], 1800 nM in experiment [3] (setting [8]) and 54000 nM in experiment [4] (setting [9]).
As for Ivermectin, the EC50 in experiment [1] (setting [7]) was determined as 798 nM; in experiment [2], 767 nM; in experiment [3] (setting [8]) it was 4260 nM; in experiment [4] (setting [9]) it was 687 nM.
